The values below come from US8822447B2, “Indazole compounds useful as ketohexokinase inhibitors” (Janssen Pharmaceutica NV, priority 2010, dated 2014).

Bounds are passed on as bounds.

Chain of KHK (P50053 whole entry): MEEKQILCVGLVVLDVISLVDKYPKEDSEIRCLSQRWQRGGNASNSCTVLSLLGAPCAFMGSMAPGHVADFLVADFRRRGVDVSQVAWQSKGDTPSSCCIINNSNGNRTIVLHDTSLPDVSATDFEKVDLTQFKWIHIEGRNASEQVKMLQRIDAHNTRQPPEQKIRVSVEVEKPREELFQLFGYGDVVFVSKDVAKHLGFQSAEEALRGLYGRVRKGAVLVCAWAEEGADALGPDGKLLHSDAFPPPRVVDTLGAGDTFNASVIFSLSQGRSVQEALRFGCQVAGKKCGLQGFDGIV

The assay addresses KHK (Homo sapiens (Human), UniProt P50053). The assay is described as follows: In Vitro KHK Enzyme Assay (HTMS).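 Further: primary screen measuring inhibition of KHK-catalysed conversion of D-fructose into fructose 1-phosphate.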 The class given is biochemical. The conditions noted are these: 200 μM fructose, 100 μM ATP, 2 nM KHK, 60 min at 25° C.; Fructose-1-P detected by high throughput mass spectrometry.
`CSc1nn(-c2ccccc2)c2cc(C3=CCN(C(=O)CCN)CC3)ccc12` [Compound 149, 3-Amino-1-[4-(3-methylsulfanyl-1-phenyl-1H-indazol-6-yl)-3,6-dihydro-2H-pyridin-1-yl]-propan-1-one]: the half-inhibitory concentration (IC50) (as a rule, the concentration that inhibits the measured activity by half) turned out to be 480 nM.
For `CSc1nn(-c2ccccc2)c2cc(C=Cn3cncn3)ccc12` [Compound 152, 3-Methylsulfanyl-1-phenyl-6-(2-[1,2,4]triazol-1-yl-vinyl)-1H-indazole] the value was over 10000 nM; for `CSc1nn(-c2ccccc2)c2cc(C=CC3CCNCC3)ccc12` [Compound 153, 3-Methylsulfanyl-1-phenyl-6-(2-piperidin-4-yl-vinyl)-1H-indazole], 400 nM; for `CSc1nn(-c2ccccc2)c2cc(C=Cc3ccncc3)ccc12` [Compound 154, 3-Methylsulfanyl-1-phenyl-6-(2-pyridin-4-yl-vinyl)-1H-indazole], over 10000 nM.
Molecule `CSc1nn(-c2ccccc2)c2cc(C=Cc3ccccn3)ccc12` [Compound 155, 3-Methylsulfanyl-1-phenyl-6-(2-pyridin-2-yl-vinyl)-1H-indazole] gave an IC50 of over 10000 nM.
Then `CSc1nn(-c2ccccc2)c2cc(NC(=O)C3(N)CCNCC3)ccc12` [Compound 157, 4-Amino-piperidine-4-carboxylic acid (3-methylsulfanyl-1-phenyl-1H-indazol-6-yl)-amide], with 300 nM; and `CSc1nn(-c2ccccc2)c2cc(NC(=O)C3(C)CCNCC3)ccc12` [Compound 158, 4-Methyl-piperidine-4-carboxylic acid (3-methylsulfanyl-1-phenyl-1H-indazol-6-yl)-amide], with 700 nM.
In turn, `CSc1nn(-c2ccccc2)c2cc(C(=O)CC3CCNCC3)ccc12` [Compound 160, 1-(3-Methylsulfanyl-1-phenyl-1H-indazol-6-yl)-2-piperidin-4-yl-ethanone] displayed a half-maximal inhibitory concentration (IC50) of 1000 nM.
For `CSc1nn(-c2ccccc2)c2cc(C(=O)CC3CCCNC3)ccc12` (centres unmarked) [Compound 161, 1-(3-Methylsulfanyl-1-phenyl-1H-indazol-6-yl)-2-piperidin-3-yl-ethanone] the value was 6620 nM; for `CSc1nn(-c2ccccc2)c2cc(C(=O)CC3CCCN3)ccc12` (centres unmarked) [Compound 163, 1-(3-Methylsulfanyl-1-phenyl-1H-indazol-6-yl)-2-pyrrolidin-2-yl-ethanone], 8280 nM.
For `CSc1nn(-c2ccccc2)c2cc(-c3ccncc3)ccc12` [Compound 164, 3-Methylsulfanyl-1-phenyl-6-pyridin-4-yl-1H-indazole] the value was over 10000 nM; for `CSc1nn(-c2ccccc2)c2cc(NCCN3CCNCC3)ccc12` [Compound 165, (3-Methylsulfanyl-1-phenyl-1H-indazol-6-yl)-(2-piperazin-1-yl-ethyl)-amine], 890 nM.
For `CSc1nn(-c2ccccc2)c2cc(NCCC3CCNCC3)ccc12` [Compound 166, (3-Methylsulfanyl-1-phenyl-1H-indazol-6-yl)-(2-piperidin-4-yl-ethyl)-amine] the value was 600 nM; for `CSc1nn(-c2ccccc2)c2cc(NC(=O)C3(F)CCNCC3)ccc12` [Compound 167, 4-Fluoro-piperidine-4-carboxylic acid (3-methylsulfanyl-1-phenyl-1H-indazol-6-yl)-amide], 660 nM.
In turn, `CSc1nn(-c2ccccc2)c2cc(C(=O)C(=O)N3CCNCC3)ccc12` [Compound 168, 1-(3-Methylsulfanyl-1-phenyl-1H-indazol-6-yl)-2-piperazin-1-yl-ethane-1,2-dione] showed a concentration for half-maximal inhibition (IC50) of 4120 nM. This IC50 is about 6.2-fold higher than that of the molecule before.
Then `CSc1nn(-c2ccccc2)c2cc(C(=O)c3ccc4ncn(C)c4c3)ccc12` [Compound 171, (3-Methyl-3H-benzoimidazol-5-yl)-(3-methylsulfanyl-1-phenyl-1H-indazol-6-yl)-methanone], with over 10000 nM; and `CSc1nn(-c2ccccc2)c2cc(NC(=O)C3(c4ccccc4)CCNCC3)ccc12` [Compound 172, 4-Phenyl-piperidine-4-carboxylic acid (3-methylsulfanyl-1-phenyl-1H-indazol-6-yl)-amide], with 2150 nM.
Then `COc1ccc(-n2nc(SC)c3ccc(C(=O)c4ccc5ncn(C)c5c4)cc32)cc1` [Compound 173, [1-(4-Methoxy-phenyl)-3-methylsulfanyl-1H-indazol-6-yl]-(3-methyl-3H-benzoimidazol-5-yl)-methanone], with over 10000 nM; and `CSc1nn(-c2ccccc2)c2cc(C(=O)c3ccc4nonc4c3)ccc12` [Compound 174, Benzo[1,2,5]oxadiazol-5-yl-(3-methylsulfanyl-1-phenyl-1H-indazol-6-yl)-methanone], with over 10000 nM; and `CSc1nn(-c2ccccc2)c2cc(C=CC3CCCN3)ccc12` (centres unmarked) [Compound 175, 3-Methylsulfanyl-1-phenyl-6-(2-pyrrolidin-2-yl-vinyl)-1H-indazole], with 610 nM.
For `CSc1nn(-c2ccccc2)c2cc(C=CC3CCCNC3)ccc12` (centres unmarked) [Compound 176, 3-Methylsulfanyl-1-phenyl-6-(2-piperidin-3-yl-vinyl)-1H-indazole] the value was 790 nM.
Regarding `CSc1nn(-c2ccccc2)c2cc(C=Cc3ccc(C)nc3)ccc12` [Compound 178, 6-[2-(6-Methyl-pyridin-3-yl)-vinyl]-3-methylsulfanyl-1-phenyl-1H-indazole], the IC50 was over 10000 nM.
Then `CSc1nn(-c2cccc(F)c2)c2cc(C3=CCNCC3)ccc12` [Compound 179, 1-(3-Fluoro-phenyl)-3-methylsulfanyl-6-(1,2,3,6-tetrahydro-pyridin-4-yl)-1H-indazole], with 40 nM; and `CSc1nn(-c2ccccc2C)c2cc(C3=CCNCC3)ccc12` [Compound 180, 3-Methylsulfanyl-6-(1,2,3,6-tetrahydro-pyridin-4-yl)-1-o-tolyl-1H-indazole], with over 10000 nM.
For `CSc1nn(-c2ccc(C)cc2)c2cc(C3=CCNCC3)ccc12` [Compound 184, 3-Methylsulfanyl-6-(1,2,3,6-tetrahydro-pyridin-4-yl)-1-p-tolyl-1H-indazole] the value was 40 nM; for `CSc1nn(-c2ccccc2)c2cc(CCC3CCNCC3)ccc12` [Compound 185, 3-Methylsulfanyl-1-phenyl-6-(2-piperidin-4-yl-ethyl)-1H-indazole], 920 nM.
